Measurements reported in patent US20110028566A1, “COMPOSITIONS AND PRODUCTS CONTAINING CYCLOALIPHATIC DIOL ANTIMICROBIAL AGENTS AND METHODS OF USING THE COMPOSITIONS AND PRODUCTS” (EASTMAN CHEMICAL COMPANY, priority 2009, published 2011).

Tests used:
Experiment in all cases: Microbial challenge testing in BPW
Assay type in all cases: cell-based
Conditions in all cases: BPW, w/v % in label, average of replicates
[1] = tested on: Aeromonas sp.
Method: (§1) The microorganisms used in challenge tests are given in Table 3, designated as either ATCC (American Type Culture Collection) or wild type. These wild type organisms were problematic organisms previously isolated from chemical products. In the description for each organism, the bacteria are indicated as either GN (Gram negative) or GP (Gram positive).
(§2) All of the microorganisms were grown in Tryptose Soy Broth (TSB), DIFCO™ available from Becton, Dickinson and Company, containing 1% dextrose. Aspergillus niger and Candida albicans were incubated at 22° C.±2° C. for at least 96 hours. All bacteria were incubated at 35° C.±2° C. in a humidified incubator for at least 96 hours.
(§3) The following procedure was followed to determine the amount of each challenge material (inoculum broth) required to produce a 10^8 cfu/mL challenge, which is equivalent to a final test-sample microbial concentration of 10^5 to 10^6 cfu (colony-forming units)/mL.
(§4) Using a sterile serological pipette, 1 mL of the growth from each TSB culture was transferred into tubes containing 9 mL phosphate buffer (pH 7.2) and mixed thoroughly. This process was repeated to make serial 1:10 dilutions. Then 0.1 mL of each sample and dilution was inoculated onto agar plates to produce the equivalent of a further 1:10 dilution. C. albicans and A. niger were inoculated onto SDA and bacteria were inoculated onto Plate Count Agar (PCA), DIFCO™ available from Becton, Dickinson and Company. The 0.1 mL aliquots were evenly distributed on the plates using the spread-plate technique. The spread-plate technique is performed by spreading the aliquot over the entire plate surface using a sterile spreading rod while rotating the plate with a rotary auto-plater. After the inoculum was absorbed completely, each plate was inverted and incubated (fungi at 22° C.±2° C. and bacteria at 35° C.±2° C.).
(§5) After incubation for at least 48 hours, colonies that had developed on the agar plates were counted and recorded with the corresponding dilution. If counting had to be delayed temporarily, plates were refrigerated, preferably no more than 24 hours, until they could be counted. The number of cfu/mL was determined by multiplying the count by the dilution factor for that particular plate.
(§6) Turbidity in Nepholemetric Turbidity Units (NTU) was measured for each serial dilution using the HF-Micro 100 Model Turbidimeter. For each microorganism, the plate counts were compared to the turbidity readings.
(§7) Control substrates (“broth alone”) were prepared for each microorganism separately in triplicate by adding 13.5 mL of BPW (pH 7.0) containing 1% (w/v) dextrose to each 20-mL glass tube; then adding 1.5 mL challenge material to produce a final concentration at time zero of 10^5 to 10^6 cfu/mL and a total volume of 15 mL.
(§8) Test sample substrates were prepared containing each test material (1,4-CHDM, etc) or combination of test materials at the concentrations shown in Tables 5 and 6. Sample substrates were prepared in triplicate, except those substrates containing PE or CG which were prepared in duplicate. Substrates were prepared by adding BPW containing 1% (w/v) dextrose to each 20-mL glass tube, then adding the test material in the amount appropriate to achieve the desired weight/volume percent (g/100 mL) and to obtain a total volume of BPW with dextrose and test material of 13.5 mL. Then 1.5 mL challenge material was added to produce a final concentration at time zero of 10^5 to 10^6 cfu/mL of the respective organism and a total test sample substrate volume of 15 mL.
(§9) After mixing, all challenged substrates were incubated at 35° C.±2° C. for 14 days and then at ambient room temperature.

[2] = tested on: Escherichia coli
Method: as §1, §2, §3, §4, §5, §6, §7, §8, §9

[3] = tested on: Proteus vulgaris
Method: as §1, §2, §3, §4, §5, §6, §7, §8, §9

[4] = tested on: Bacillus subtilis
Method: as §1, §2, §3, §4, §5, §6, §7, §8, §9

[5] = tested on: Pseudomonas aeruginosa
Method: as §1, §2, §3, §4, §5, §6, §7, §8, §9

[6] = tested on: Staphylococcus epidermidis
Method: as §1, §2, §3, §4, §5, §6, §7, §8, §9

[7] = tested on: Burkholderia cepacia
Method: as §1, §2, §3, §4, §5, §6, §7, §8, §9

[8] = tested on: Candida albicans
Method: as §1, §2
Aspergillus niger and Candida albicans were also grown on Sabouraud dextrose agar (SDA) at 22° C.±2° C. for 7 to 14 days or until full sporulation was achieved.
as §3, §4, §5, §6
On the day of challenge, the Candida albicans inoculum broth was poured through non-absorbent sterile gauze and centrifuged. The […] was then diluted with phosphate buffer (pH 7.2) until the desired turbidity was reached. Using a hemocytometer, a determination was made whether the challenge contained the desired concentration. Dilutions were made through 1.0×10^8 and three SDA spread plates were inoculated with 0.1 mL of each dilution.
as §7
Test sample substrates were prepared containing each test material (1,4-CHDM, etc) or combination of test materials at the concentrations shown in Tables 5 and 6.

## O=C([O-])CN(CCN(CC(=O)O)CC(=O)O)CC(=O)[O-].[Na+].[Na+] [EDTA, ethylenediaminetetraacetic acid disodium salt]
[1]; 3 days incubation
  Grade code, Aeromonas sp, 3 Days: 5 (More than 10,000 colonies estimated (thus >100,000 cfu/mL))
[1]; 14 days incubation
  Grade code, Aeromonas sp, 14 Days: 4 (1001 to 10,000 colonies (thus 10,000 cfu/mL to 100,000 cfu/mL))
[1]; 30 days incubation
  Grade code, Aeromonas sp, 30 Days: 4 (1001 to 10,000 colonies (thus 10,000 cfu/mL to 100,000 cfu/mL))
[2]; 3 days incubation
  Grade code, E. coli, 3 Day: 5 (More than 10,000 colonies estimated (thus >100,000 cfu/mL))
[2]; 14 days incubation
  Grade code, E. coli, 14 Day: 5 (More than 10,000 colonies estimated (thus >100,000 cfu/mL))
[2]; 30 days incubation
  Grade code, E. coli, 30 Day: 5 (More than 10,000 colonies estimated (thus >100,000 cfu/mL))
[3]; 3 days incubation
  Grade code, P. vulgaris, 3 Days: 5 (More than 10,000 colonies estimated (thus >100,000 cfu/mL))
[3]; 13 days incubation
  Grade code, P. vulgaris, 13 Days: 4 (1001 to 10,000 colonies (thus 10,000 cfu/mL to 100,000 cfu/mL))
[3]; 30 days incubation
  Grade code, P. vulgaris, 30 Day: 4 (1001 to 10,000 colonies (thus 10,000 cfu/mL to 100,000 cfu/mL))
[4]; 3 days incubation
  Grade code, B. subtilis, 3 Day: 4 (1001 to 10,000 colonies (thus 10,000 cfu/mL to 100,000 cfu/mL))
[4]; 14 days incubation
  Grade code, B. subtilis, 14 Day: 4 (1001 to 10,000 colonies (thus 10,000 cfu/mL to 100,000 cfu/mL))
[4]; 30 days incubation
  Grade code, B. subtilis, 30 Days: 4 (1001 to 10,000 colonies (thus 10,000 cfu/mL to 100,000 cfu/mL))
[5]; 3 days incubation
  Grade code, P. aeruginosa, 3 Days: 4 (1001 to 10,000 colonies (thus 10,000 cfu/mL to 100,000 cfu/mL))
[5]; 13 days incubation
  Grade code, P. aeruginosa, 13 Days: 4 (1001 to 10,000 colonies (thus 10,000 cfu/mL to 100,000 cfu/mL))
[5]; 30 days incubation
  Grade code, P. aeruginosa, 30 Days: 5 (More than 10,000 colonies estimated (thus >100,000 cfu/mL))
[6]; 3 days incubation
  Grade code, S. epidermidis, 3 Days: 4 (1001 to 10,000 colonies (thus 10,000 cfu/mL to 100,000 cfu/mL))
[6]; 13 days incubation
  Grade code, S. epidermidis, 13 Days: 3 (101 to 1000 colonies (thus 1000 to 10,000 cfu/mL))
[6]; 30 days incubation
  Grade code, S. epidermidis, 30 Days: 4 (1001 to 10,000 colonies (thus 10,000 cfu/mL to 100,000 cfu/mL))
[7]; 3 days incubation
  Grade code, B. cepacia, 3 Days: 4 (1001 to 10,000 colonies (thus 10,000 cfu/mL to 100,000 cfu/mL))
[7]; 14 days incubation
  Grade code, B. cepacia, 14 Days: 4 (1001 to 10,000 colonies (thus 10,000 cfu/mL to 100,000 cfu/mL))
[7]; 30 days incubation
  Grade code, B. cepacia, 30 Days: 4 (1001 to 10,000 colonies (thus 10,000 cfu/mL to 100,000 cfu/mL))
[8]; 3 days incubation
  Grade code, C. albicans, 3 Day: 4 (1001 to 10,000 colonies (thus 10,000 cfu/mL to 100,000 cfu/mL))
[8]; 14 days incubation
  Grade code, C. albicans, 14 Day: 5 (More than 10,000 colonies estimated (thus >100,000 cfu/mL))
[8]; 30 days incubation
  Grade code, C. albicans, 30 Days: 5 (More than 10,000 colonies estimated (thus >100,000 cfu/mL))
